# Legend:
# Type in all cases: physicochemical
# [1] = DLS particle size and PDI of hydrocortisone derivatives milled with Pluronic F127 (Examples 8, 9); settings: for PDI of milled suspension / Size (Z-averaged) of milled suspension: 5% compound, 5% F127 in PBS pH 7.1, milled 25 hours; for Milled suspension PDI / Milled suspension Size (Z-average): final form B
# Experimental: (§1) A milling procedure was employed in which aqueous dispersions containing coarse compound particles were individually milled with F127 at near-neutral pH buffer using a grinding medium. Briefly, a slurry containing 5% of compound and 5% F127 in PBS (0.0067 M PO4^3−), pH 7.1 was added to an equal bulk volume of 1-mm ceria-stabilized zirconium oxide beads in a glass vial (e.g., 2 mL of slurry per 2 mL of beads). A magnetic stir bar was used to agitate the beads, stirring at approximately 500 rpm at ambient conditions for 25 hours.
# The milled suspensions were subjected to dynamic light scattering (DLS) measurements to determine particle size and polydispersity index (PDI, a measure of the width of the particle size distribution). The samples for DLS measurements were buffered with HyClone™ PBS (Phosphate-Buffered Saline) to produce isotonic samples that have a physiologically relevant pH.
# Form 3-B was wet-milled using the same method that generated the data in Tables 13 and 14.
# [2] = XRPD crystal form before and after milling; settings: milled with F127
# Description: Particles were isolated by centrifugation, then resuspended in H2O and then recentrifuged. The wet sample was resuspended in H2O and deposited thinly and evenly onto a flat zero background sample holder (Rigaku 906165). The sample was allowed to air dry.
# Milligram amounts were packed as an evenly thin layer of solid onto a zero background sample holder (Rigaku 906165).
# XRPD patterns were obtained using a Rigaku MiniFlex 600 benchtop x-ray diffractometer equipped with a Cu X-ray tube (Cu/Kα=1.54059 Å), a six-position sample changer and a D/teX Ultra detector. […] Diffraction patterns were viewed and analyzed using PDXL analysis software provided by the instrument manufacturer. A reference standard silicon powder (NIST Standard Reference Material 640d) generated a peak at 28.43° and 28.45° two theta when samples were prepared as suspension in H2O (to simulate Procedure A) and Procedure B, respectively.
# Except for Crystalline Form 1-B, the XRPD samples of all other forms were prepared using Procedure A (milled compounds) or Procedure B (neat compounds). […] was used to prepare the XRPD sample of Crystalline Form 1-B.
# All input crystalline forms were arbitrarily designated as “A” forms. New forms that emerged after milling, if any, were sequentially designated as “B”, “C”, etc. An “A” form was not designated for Compound 2 since the input material was amorphous.
# [3] = HPLC chemical purity of milled suspensions (stability to milling)
# Experimental: as §1
# The HPLC method used to determine the purity of milled suspensions is as follows: column—SunFire™ C18, 3.5 μm, 3.0×150 mm, column temperature—40° C., flow rate—0.7 mL/min, detection wavelength—254 nm, flow gradient—50:50 (0 minutes) to 0:100 (10 minutes) 0.1% phosphoric acid/H2O:acetonitrile.
# [4] = DLS particle size and PDI of drugs milled with F127 or SDS (Example 6)
# Description: The technique described in Example 1 was applied to other non-polymeric solid particles to show the versatility of the approach. […] Table 12 lists the particle sizes for a representative selection of drugs that were milled using this method.
# [5] = drug milled with stabilizer F127
# [6] = drug milled with stabilizer SDS
"PDI [4, 5]","Z-Ave D [4, 5]","PDI [4, 6]","Z-Ave D [4, 6]",SMILES,Size (Z-averaged) of milled suspension [1],Crystal form change after milling of Input forms? [2],Purity after milling ([3]; after milling with F127),other results
0.119,217 nm,0.146,200 nm,NS(=O)(=O)c1cc(C(=O)O)c(NCc2ccco2)cc1Cl [Furosemide],–,–,–,–
0.123,225 nm,0.154,216 nm,COc1ccc2c(c1)c(CC(=O)O)c(C)n2C(=O)c1ccc(Cl)cc1 [Indomethacin],–,–,–,–
0.123,241 nm,0.130,241 nm,CCOC(=O)O[C@]1(C(=O)OCCl)CC[C@H]2[C@@H]3CCC4=CC(=O)C=C[C@]4(C)[C@H]3[C@@H](O)C[C@@]21C [Loteprednol etabonate],–,–,–,–
0.090,273 nm,0.120,245 nm,C[C@]12C=CC(=O)C=C1CC[C@@H]1[C@@H]2[C@@H](O)C[C@@]2(C)[C@H]1CC[C@]2(O)C(=O)CO [Prednisolone],–,–,–,–

# Continued, compound first:
SMILES,"PDI [4, 5]","Z-Ave D [4, 5]","PDI [4, 6]","Z-Ave D [4, 6]",Size (Z-averaged) of milled suspension [1],Crystal form change after milling of Input forms? [2],Purity after milling ([3]; after milling with F127),other results
"C[C@]12CCC(=O)C=C1CC[C@@H]1[C@@H]2[C@@H](O)C[C@@]2(C)[C@H]1CC[C@]2(OC(=O)CCS(=O)(=O)c1ccccc1)C(=O)CO [Compound 1, (10R,11S,13S,17R)-11-hydroxy-17-(2-hydroxyacetyl)-10,13-dimethyl-3-oxo-2,3,6,7,8,9,10,11,12,13,14,15,16,17-tetradecahydro-1H-cyclopenta[a]phenanthren-17-yl 3-(phenylsulfonyl)propanoate]",–,–,–,–,509 nm,Yes,<90%,"PDI of milled suspension [1]: 0.318; Purity after milling ([3]; after milling with F127, listed as 7): < 90%"
"C[C@]12CCC(=O)C=C1CC[C@@H]1[C@@H]2[C@@H](O)C[C@@]2(C)[C@H]1CC[C@]2(OC(=O)c1ccco1)C(=O)CO [Compound 2, (10R,11S,13S,17R)-11-hydroxy-17-(2-hydroxyacetyl)-10,13-dimethyl-3-oxo-2,3,6,7,8,9,10,11,12,13,14,15,16,17-tetradecahydro-1H-cyclopenta[a]phenanthren-17-yl furan-2-carboxylate]",–,–,–,–,238 nm,No,>96%,–
"C[C@]12CCC(=O)C=C1CC[C@@H]1[C@@H]2[C@@H](O)C[C@@]2(C)[C@H]1CC[C@]2(OC(=O)Cc1ccc(Br)cc1)C(=O)CO [Compound 3, (10R,11S,13S,17R)-11-hydroxy-17-(2-hydroxyacetyl)-10,13-dimethyl-3-oxo-2,3,6,7,8,9,10,11,12,13,14,15,16,17-tetradecahydro-1H-cyclopenta[a]phenanthren-17-yl 2-(4-bromophenyl)acetate]",–,–,–,–,341 nm,Yes,>96%,PDI of milled suspension [1]: 0.197; Milled suspension PDI ([1]; input form A): 0.197; Milled suspension Size (Z-average) ([1]; input form A): 341 nm; Milled suspension PDI ([1]; input form B): 0.154; Milled suspension Size (Z-average) ([1]; input form B): 262 nm
CCC(=O)O[C@]1(C(=O)SCF)[C@H](C)C[C@H]2[C@@H]3C[C@H](F)C4=CC(=O)C=C[C@]4(C)[C@@]3(F)[C@@H](O)C[C@@]21C [Fluticasone propionate],0.114,203 nm,0.193,202 nm,–,–,–,–
